According to PubChem BioAssay AID1963864 (Molecular Pharmacology Branch, DTP, NCI, 2024):

Test system: KRAS PDC multicell spheroid viability
Assay: Anticancer human tumor 521955-158-R6-J3-PDC patient-derived pancreatic carcinoma cell line growth inhibition [KRAS2]
Conditions: for viability, T/C: stronger effect = lower value
Procedure, shortened: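 KRAS-mutant tumor cells were grown as spheroids with HUVEC endothelial cells and human MSCs as stroma. Targeted agents were tested alone and with KRAS pathway inhibitors. Doses started at or near clinical Cmax, or 10 microM, descending half-log.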

[1] = curve of first compound, second compound 0.0316 µM
[2] = curve of first compound, second compound 0.1 µM
[3] = curve of first compound, second compound 0.316 µM
[4] = curve of first compound, second compound 1 µM
[5] = curve of first compound, second compound 3.16 µM
[6] = second compound 0.0316 µM, first compound 0.01 µM
[7] = second compound 0.0316 µM, first compound 0.0316 µM
[8] = second compound 0.0316 µM, first compound 0.1 µM
[9] = second compound 0.0316 µM, first compound 0.316 µM
[10] = second compound 0.0316 µM, first compound 1 µM
[11] = second compound 0.0316 µM, first compound 3.16 µM
[12] = second compound 0.1 µM, first compound 0.01 µM
[13] = second compound 0.1 µM, first compound 0.0316 µM
[14] = second compound 0.1 µM, first compound 0.1 µM
[15] = second compound 0.1 µM, first compound 0.316 µM
[16] = second compound 0.1 µM, first compound 1 µM
[17] = second compound 0.1 µM, first compound 3.16 µM
[18] = second compound 0.316 µM, first compound 0.01 µM
[19] = second compound 0.316 µM, first compound 0.0316 µM
[20] = second compound 0.316 µM, first compound 0.1 µM
[21] = second compound 0.316 µM, first compound 0.316 µM
[22] = second compound 0.316 µM, first compound 1 µM
[23] = second compound 0.316 µM, first compound 3.16 µM
[24] = second compound 1 µM, first compound 0.01 µM
[25] = second compound 1 µM, first compound 0.0316 µM
[26] = second compound 1 µM, first compound 0.1 µM
[27] = second compound 1 µM, first compound 0.316 µM
[28] = second compound 1 µM, first compound 1 µM
[29] = second compound 1 µM, first compound 3.16 µM
[30] = second compound 3.16 µM, first compound 0.01 µM
[31] = second compound 3.16 µM, first compound 0.0316 µM
[32] = second compound 3.16 µM, first compound 0.1 µM
[33] = second compound 3.16 µM, first compound 0.316 µM
[34] = second compound 3.16 µM, first compound 1 µM
[35] = second compound 3.16 µM, first compound 3.16 µM
[36] = curve of first compound, second compound 10 µM
[37] = second compound 0.1 µM, first compound 0.00316 µM
[38] = second compound 0.316 µM, first compound 0.00316 µM
[39] = second compound 1 µM, first compound 0.00316 µM
[40] = second compound 3.16 µM, first compound 0.00316 µM
[41] = second compound 10 µM, first compound 0.0316 µM
[42] = second compound 10 µM, first compound 0.1 µM
[43] = second compound 10 µM, first compound 0.316 µM
[44] = second compound 10 µM, first compound 1 µM
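Further: drug exposure lasted seven days.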
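Wherever viability, T/C is given: 100% = DMSO vehicle wells and lower means fewer viable cells.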

Compound | IC50 [2] [nM] | IC50 [3] [nM] | IC50 [4] [nM] | IC50 [5] [nM] | viability, T/C [12] [%] | viability, T/C [13] [%] | viability, T/C [14] [%] | viability, T/C [15] [%] | viability, T/C [16] [%] | viability, T/C [18] [%] | viability, T/C [19] [%] | viability, T/C [20] [%] | viability, T/C [21] [%] | viability, T/C [22] [%] | viability, T/C [24] [%] | viability, T/C [25] [%] | viability, T/C [26] [%] | viability, T/C [27] [%] | viability, T/C [31] [%] | viability, T/C [32] [%] | other results
CC(=O)OC12COC1CC(O)C1(C)C(=O)C(O)C3=C(C)C(OC(=O)C(O)C(NC(=O)OC(C)(C)C)c4ccccc4)CC(O)(C(OC(=O)c4ccccc4)C21)C3(C)C (stereo not drawn) + C=CC(=O)N1CCN(c2nc(OCC3CCCN3C)nc3c2CCN(c2cccc4cccc(C)c24)C3)CC1CC#N | > 3160 | > 3160 | > 3160 | > 3160 | 79.6 | 78.7 | 70.4 | 81.7 | 95 | 69.2 | 52.9 | 68.8 | 75.1 | 81.3 | 71 | 82.2 | 82.7 | 83.3 | 81.4 | 76.8 | IC50 [1]: > 3160 nM; viability, T/C [6]: 83.9%; viability, T/C [7]: 72.8%; viability, T/C [8]: 71.7%; viability, T/C [9]: 80.5%; viability, T/C [10]: 93%; viability, T/C [11]: 110%; viability, T/C [17]: 130%; viability, T/C [23]: 87.9%; viability, T/C [28]: 113%; viability, T/C [29]: 112%; viability, T/C [30]: 83.2%; viability, T/C [33]: 74.3%; viability, T/C [34]: 102%; viability, T/C [35]: 107%
CC1COCCN1c1cc(-c2ccnn2C)c2ccnc(-c3ccn[nH]3)c2n1 (stereo not drawn) + C=CC(=O)N1CCN(c2nc(OCC3CCCN3C)nc3c2CCN(c2cccc4cccc(C)c24)C3)CC1CC#N | > 3160 | > 3160 | > 3160 | 12.1 | 92.6 | 95.3 | 77 | 71.4 | 75 | 89.5 | 85.1 | 73.1 | 74.7 | 73.6 | 71.7 | 79 | 68 | 69.4 | 39.7 | 31.9 | IC50 [1]: > 3160 nM; viability, T/C [6]: 88%; viability, T/C [7]: 90.2%; viability, T/C [8]: 89.7%; viability, T/C [9]: 79.8%; viability, T/C [10]: 78.8%; viability, T/C [11]: 92.9%; viability, T/C [17]: 94.5%; viability, T/C [23]: 76.8%; viability, T/C [28]: 59.9%; viability, T/C [29]: 71.7%; viability, T/C [30]: 52.2%; viability, T/C [33]: 36.5%; viability, T/C [34]: 27.6%; viability, T/C [35]: 45.8%
CCN1CCN(Cc2ccc(Nc3ncc(F)c(-c4cc(F)c5nc(C)n(C(C)C)c5c4)n3)nc2)CC1 + CNCc1ccccc1-c1csc(C(C)Nc2nc(C)nc3cc(OC)c(OC)cc23)c1 | > 1000 | > 1000 | 317 | < 3.16 | 77.8 | 70.5 | 67.1 | 72.1 | 102 | 71.9 | 74.1 | 68 | 67.5 | 80.2 | 70.3 | 63.5 | 53.8 | 54.8 | 0.51 | 0.75 | IC50 [36]: < 3.16 nM; viability, T/C [37]: 75.1%; viability, T/C [38]: 77.7%; viability, T/C [39]: 66.8%; viability, T/C [28]: 30.8%; viability, T/C [40]: 0.3%; viability, T/C [30]: 0.38%; viability, T/C [33]: 0.45%; viability, T/C [34]: 0.37%; viability, T/C (second compound 10 µM, first compound 0.00316 µM): 0.25%; viability, T/C (second compound 10 µM, first compound 0.01 µM): 0.26%; viability, T/C [41]: 0.3%; viability, T/C [42]: 0.21%; viability, T/C [43]: 0.22%; viability, T/C [44]: 0.46%
COc1cc2nccc(Oc3ccc(NC(=O)C4(C(=O)Nc5ccc(F)cc5)CC4)cc3)c2cc1OC + COc1cc2nc(C)nc(NC(C)c3cc(N)cc(C(F)(F)F)c3)c2cc1OC1CCOC1 | > 10000 | > 10000 | > 10000 | > 10000 | – | 89.3 | 91.9 | 78.7 | 91.3 | – | 93.3 | 97.2 | 90.1 | 90.9 | – | 79.8 | 84.4 | 83.5 | 70.5 | 73.9 | IC50 [36]: < 31.6 nM; viability, T/C [17]: 101%; viability, T/C (second compound 0.1 µM, first compound 10 µM): 90.2%; viability, T/C [23]: 97.5%; viability, T/C (second compound 0.316 µM, first compound 10 µM): 95.2%; viability, T/C [28]: 88.1%; viability, T/C [29]: 103%; viability, T/C (second compound 1 µM, first compound 10 µM): 78.7%; viability, T/C [33]: 70.8%; viability, T/C [34]: 72.8%; viability, T/C [35]: 89.5%; viability, T/C (second compound 3.16 µM, first compound 10 µM): 53.6%; viability, T/C [41]: 49.1%; viability, T/C [42]: 11.8%; viability, T/C [43]: 18.1%; viability, T/C [44]: 27.6%; viability, T/C (second compound 10 µM, first compound 3.16 µM): 2.28%; viability, T/C (second compound 10 µM, first compound 10 µM): 1.88%
C=CC(=O)N1CCN(c2nc(OCC3CCCN3C)nc3c2CCN(c2cccc4cccc(C)c24)C3)CC1CC#N (stereo not drawn) | – | – | – | – | – | – | – | – | – | – | – | – | – | – | – | – | – | – | – | – | viability, T/C (compound 0.0316 µM): 91.1% [middle of 16 runs]; viability, T/C (compound 0.1 µM): 94.9% [middle of 16 runs]; IC50 (compound alone, run of 09/02/2021): 2.01 µM [middle of 5 runs]
CC(C)n1nc(-c2ccc3oc(N)nc3c2)c2c(N)ncnc21 + C=CC(=O)N1CCN(c2nc(OCC3CCCN3C)nc3c2CCN(c2cccc4cccc(C)c24)C3)CC1CC#N | 67.9 | 72.8 | 87.1 | 3.47 | 77.6 | 59.8 | 44.2 | – | – | 74.4 | 60.3 | 45.9 | – | – | 54.2 | 61.2 | 47 | – | 39.6 | 21.8 | IC50 [1]: 69.1 nM; viability, T/C (second compound 0.0316 µM, first compound 0.000316 µM): 98%; viability, T/C (second compound 0.0316 µM, first compound 0.001 µM): 86.7%; viability, T/C (second compound 0.0316 µM, first compound 0.00316 µM): 85.4%; viability, T/C [6]: 62.3%; viability, T/C [7]: 63%; viability, T/C [8]: 44.8%; viability, T/C (second compound 0.1 µM, first compound 0.000316 µM): 90.8%; viability, T/C (second compound 0.1 µM, first compound 0.001 µM): 86.4%; viability, T/C [37]: 78.2%; viability, T/C (second compound 0.316 µM, first compound 0.000316 µM): 94.2%; viability, T/C (second compound 0.316 µM, first compound 0.001 µM): 90.7%; viability, T/C [38]: 80.6%; viability, T/C (second compound 1 µM, first compound 0.000316 µM): 81.8%; viability, T/C (second compound 1 µM, first compound 0.001 µM): 68.6%; viability, T/C [39]: 73.3%; viability, T/C (second compound 3.16 µM, first compound 0.000316 µM): 60.7%; viability, T/C (second compound 3.16 µM, first compound 0.001 µM): 41.7%; viability, T/C [40]: 54.5%; viability, T/C [30]: 8.94%
